In patent US4489091A, “Antilipemic and anti-inflammatory compositions containing sulfonate derivatives” (Taiho Pharmaceutical Company Limited, priority 1980, dated 1984):
Where two headings read alike, the source gives them in different places.

Legend:
triglycerides = experiment: Antilipemic effect: percent triglycerides inhibition in plasma of rats given an olive oil-cholesterol mixture; format: in vivo, male Wistar rats; details: for inhibition in vivo at 100 mg/kg: read-out: Anti-lipemic effect, TG (percent triglycerides inhibition); for inhibition in vivo at 200 mg/kg: read-out: Anti-lipemic effect, TG (percent triglycerides inhibition), asterisked
Protocol: (§1) The above compounds of this invention are tested by the following methods for antilipemic effect and acute toxicity. In the column of antilipemic effect in the table, the asterisked values indicate the effect achieved by orally giving 200 mg/kg of the compounds concerned, and the unmarked values, the effect attained by orally giving 100 mg/kg. In the same column, "TG" stands for percent triglycerides inhibition and "CS" percent cholesterol inhibition.
(§2) Seven-week-old male Wistar rats weighing 200 to 220 g are used, 5 rats in each group.
(§3) Each compound of the invention (100 mg or 200 mg) is dissolved in 10 ml of an olive oil-cholesterol mixture (containing 15% of cholesterol). The mixture containing the compound is orally given to the rat with a probe at a dose of 10 ml/kg. Two or 8 hours thereafter, 6 ml of whole blood is withdrawn from the descending aorta of the rat under ether anesthesia with a syringe containing heparin. The blood is centrifuged at 5° C. and 3000 r.p.m. to obtain the plasma. The plasma collected after the lapse of 2 hours is used for determining the triglycerides content, and the plasma obtained 8 hours later for determining the total cholesterol content, using a triglycerides measuring kit (trade mark "Triglycerides-B Test Wako," product of Wako Junyaku Co., Ltd., Japan) and a total cholesterol measuring kit (trade mark "Cholesterol Test Wako," product of the same), respectively. The olive oil-cholesterol mixture containing no compound is similarly given to a control group, while no treatment is conducted for a normal group. The triglycerides and total cholesterol contents in the plasma are also determined for these groups in the same manner as is the case with the test groups.
(§4) The present hyperlipidemia inhibition achieved by the present compound is given by [formula] in which A is the triglycerides (cholesterol) content of the control group, B is the triglycerides (cholesterol) content of the normal group, and C is the triglycerides (cholesterol) content of the group to which the present compound is given.

cholesterol = experiment: Antilipemic effect: percent total cholesterol inhibition in plasma of rats given an olive oil-cholesterol mixture; format: in vivo, male Wistar rats; details: for inhibition in vivo at 100 mg/kg: read-out: Anti-lipemic effect, CS (percent cholesterol inhibition)
Protocol: as §1, §2, §3, §4

Acute toxicity = details: rat, in vivo
Source text: Six-week-old male Wistar rats weighing 180 to 200 g are used, 5 rats in each group. Each compound of the invention is suspended in a 30% aqueous solution of polyethylene glycol 6000 and orally given to the rat at the dosage shown in Table 2. The animals are checked for poisoning, body weight and survival to determine the LD50 value.

[1] = oral 100 mg/kg, plasma 2 hours after dosing, Wistar rat
[2] = oral 100 mg/kg, plasma 8 hours after dosing, Wistar rat
[3] = oral, six-week-old male Wistar rats, suspended in 30% aqueous polyethylene glycol 6000, read-out: LD50

SMILES	inhibition in vivo at 100 mg/kg (triglycerides; [1])	inhibition in vivo at 100 mg/kg (cholesterol; [2])	LD50 (Acute toxicity; po)	LD50 (Acute toxicity; [3])	further results
CCCCC(CC)C(=O)COS(=O)(=O)c1ccc(C)cc1 (stereo not drawn) [Compound 26]	85%	72%	> 4000 mg/kg		
CCCC(=O)COS(=O)(=O)c1ccccc1C [Compound 29, 2-oxopentyl-o-toluene sulfonate]	73%	30%		> 1500 mg/kg	
CCCCC(=O)COS(=O)(=O)c1ccccc1C [Compound 30]	70%	36%	> 1500 mg/kg		
CCCC(=O)COS(=O)(=O)c1ccc(OC)cc1 [Compound 34]	72%	68%	> 1500 mg/kg		
CCCCC(=O)COS(=O)(=O)c1ccc(OC)cc1 [Compound 35, 2-oxahexyl-p-methoxybenzene sulfonate]	87%	72%		> 2000 mg/kg	
CCCCCC(=O)COS(=O)(=O)c1ccc(OC)cc1 [Compound 36]	78%	79%	> 2000 mg/kg		
COc1ccc(S(=O)(=O)OCC(=O)CCC(C)C)cc1 [Compound 40]	72%	70%	> 2000 mg/kg		
C=CCCC(=O)COS(=O)(=O)c1ccc(OC)cc1 [Compound 41]	82%	61%	> 2000 mg/kg		
CCCC(=O)COS(=O)(=O)c1ccc(OCC)cc1 [Compound 43]				> 2000 mg/kg	inhibition in vivo at 100 mg/kg (triglycerides; Rattus norvegicus, po, 2 h): 97%; inhibition in vivo at 100 mg/kg (cholesterol; Rattus norvegicus, po, 8 h): 120%
CCCCC(=O)COS(=O)(=O)c1ccc(OCC)cc1 [Compound 44]	99%	90%	> 2000 mg/kg		
CCCCCC(=O)COS(=O)(=O)c1ccc(OCC)cc1 [Compound 45, 2-oxoheptyl-p-ethoxybenzenesulfonate]	85%	80%		> 3000 mg/kg	
CCCCCCC(=O)COS(=O)(=O)c1ccc(OCC)cc1 [Compound 46, 2-oxooctyl-p-ethoxybenzene sulfonate]	65%	62%		> 3000 mg/kg	
CCCCCCCCCCC(=O)COS(=O)(=O)c1ccc(OCC)cc1 [Compound 48]		55%	> 4000 mg/kg		inhibition in vivo at 200 mg/kg (triglycerides; oral 200 mg/kg (asterisked values), plasma 2 hours after dosing, Wistar rat): 72%
CCOc1ccc(S(=O)(=O)OCC(=O)C(C)CC)cc1 (stereo not drawn) [Compound 49]	90%	96%	> 2000 mg/kg		
CCOc1ccc(S(=O)(=O)OCC(=O)CCCCCCC(C)C)cc1 [Compound 51]				> 4000 mg/kg	inhibition in vivo at 200 mg/kg (triglycerides; Rattus norvegicus, po, 2 h): 70%; inhibition in vivo at 100 mg/kg (cholesterol; Rattus norvegicus, po, 8 h): 62%
C=CCCC(=O)COS(=O)(=O)c1ccc(OCC)cc1 [Compound 52]	95%	97%	> 2000 mg/kg		
CCCCOc1ccc(S(=O)(=O)OCC(=O)CCC)cc1 [Compound 53]				> 2000 mg/kg	inhibition in vivo at 100 mg/kg (triglycerides; Rattus norvegicus, po, 2 h): 61%; inhibition in vivo at 100 mg/kg (cholesterol; Rattus norvegicus, po, 8 h): 42%
CCCCCC(=O)COS(=O)(=O)c1ccc(OCCCC)cc1 [Compound 55]				> 3000 mg/kg	inhibition in vivo at 200 mg/kg (triglycerides; Rattus norvegicus, po, 2 h): 69%; Anti-lipemic effect, CS (percent cholesterol inhibition), asterisked (cholesterol; oral 200 mg/kg (asterisked values), plasma 8 hours after dosing, Wistar rat): 40%
CCCC(=O)COS(=O)(=O)c1ccc(Cl)cc1 [Compound 64]	82%	56%	> 1000 mg/kg		
CCCCC(=O)COS(=O)(=O)c1ccc(Cl)cc1 [Compound 65]	87%	49%	> 1000 mg/kg		
CC(C)CCC(=O)COS(=O)(=O)c1ccc(Cl)cc1 [Compound 70]	82%	47%	> 2000 mg/kg		
CCC(=O)COS(=O)(=O)c1c(C)cc(C)cc1C [Compound 72]	91%	90%	> 3000 mg/kg		
